The results in this text go back to PubChem BioAssay (NCI).

Test systems include MDA-MB-435; OVCAR-4 ovarian; UO-31 renal; LOX IMVI melanoma; HT29 colon; U251 CNS; ACHN renal; KM12 colon; NCI-H522 lung; OVCAR-5 ovarian.
Common to all, as to test: growth of human tumour cells (NCI), 48 h

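Compound exposure: 48 hours, 5 concentrations, 96-well plates. GI50 marks 50% less growth. TGI is the concentration that stops growth completely.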 Some results are limits rather than exact numbers.

In the case of `O=P(O)(O)OC1C(OP(=O)(O)O)C(OP(=O)(O)O)C(OP(=O)(O)O)C(OP(=O)(O)O)C1OP(=O)(O)O` (stereo not given), the GI50 in the assay on MDA-MB-435 was more than 1770 µM; in the assay with OVCAR-4 ovarian, more than 100 µM; in the assay with UO-31 renal, more than 2000 µM; in the assay on LOX IMVI melanoma, more than 2000 µM; with HT29 colon it was more than 2000 µM; in the assay with U251 CNS, more than 2000 µM. For the same compound, the GI50 with ACHN renal is more than 1700 µM; with KM12 colon, more than 1190 µM; in the assay with NCI-H522 lung, more than 2000 µM; in the assay on OVCAR-5 ovarian it was more than 2000 µM. The TGI in the assay on MDA-MB-435, in the assay with OVCAR-4 ovarian, in the assay on UO-31 renal, in the assay with LOX IMVI melanoma, in the assay with HT29 colon and with U251 CNS was more than 2000 µM throughout. For the same compound, the TGI in the assay with ACHN renal, in the assay on KM12 colon, in the assay on NCI-H522 lung and in the assay on OVCAR-5 ovarian was more than 2000 µM each time.

Take `COc1cc(-c2cc(-c3ccc(N(C)C)cc3)nc(N3CCC(O)CC3)c2C#N)cc(OC)c1OC`: the GI50 in the assay with MDA-MB-435 is 0.325 µM; in the assay with OVCAR-4 ovarian, 1.21 µM; in the assay on UO-31 renal, 0.349 µM; in the assay on LOX IMVI melanoma, 0.0455 µM; in the assay with HT29 colon it was 0.272 µM; with U251 CNS, 0.527 µM. Also, the GI50 in the assay with ACHN renal was 0.478 µM; in the assay with KM12 colon, 0.579 µM; in the assay with NCI-H522 lung it was 0.338 µM; with OVCAR-5 ovarian it was 0.459 µM. In addition, the TGI with MDA-MB-435 was 1.27 µM; in the assay on OVCAR-4 ovarian, more than 100 µM; in the assay on UO-31 renal it was 3.34 µM; with LOX IMVI melanoma it was 0.205 µM; with HT29 colon it was 1.43 µM; in the assay on U251 CNS, 2.83 µM. Besides, the TGI in the assay on ACHN renal is more than 100 µM; in the assay on KM12 colon, 4 µM; in the assay with NCI-H522 lung it was 1.32 µM; with OVCAR-5 ovarian, more than 36.3 µM.

In the case of `COc1cc[c]([Hg][Cl])cc1`, the GI50 in the assay on MDA-MB-435 is 1.61 µM; in the assay on OVCAR-4 ovarian, 1.96 µM; in the assay on UO-31 renal it was 14.6 µM; in the assay on LOX IMVI melanoma, 1.42 µM; with HT29 colon, 5.4 µM; with U251 CNS, 1.82 µM. The GI50 in the assay with ACHN renal is 1.81 µM; in the assay with KM12 colon, 14.4 µM; in the assay on NCI-H522 lung it was 0.45 µM; in the assay with OVCAR-5 ovarian it was 20.1 µM. For the same compound, the TGI turned out to be 3.2 µM in the assay on MDA-MB-435; 11.5 µM in the assay with OVCAR-4 ovarian; 28.9 µM with UO-31 renal; 2.74 µM with LOX IMVI melanoma; 61 µM in the assay with HT29 colon; 3.51 µM with U251 CNS. Besides, the TGI in the assay with ACHN renal is 3.47 µM; with KM12 colon it was 27.8 µM; with NCI-H522 lung it was 2.61 µM; in the assay with OVCAR-5 ovarian it was 37.6 µM.

For the compound `CC(=O)OCC1OC(n2cc(F)c(=O)[nH]c2=O)C(OC(C)=O)C1OC(C)=O` (stereo not given), the TGI was more than 100 µM with MDA-MB-435; more than 90.3 µM in the assay on OVCAR-4 ovarian; more than 96.1 µM with UO-31 renal; more than 63.9 µM with LOX IMVI melanoma; more than 100 µM in the assay on HT29 colon; more than 95.5 µM in the assay with U251 CNS. The TGI in the assay on ACHN renal was more than 100 µM; in the assay with KM12 colon, more than 100 µM; in the assay on NCI-H522 lung it was more than 95.5 µM; in the assay on OVCAR-5 ovarian, more than 100 µM.

Take `O=C(Cn1ccnc1[N+](=O)[O-])NCCO`: the TGI with MDA-MB-435, with OVCAR-4 ovarian, in the assay with UO-31 renal, in the assay with LOX IMVI melanoma, with HT29 colon and with U251 CNS was more than 100 µM each time. Moreover, the TGI with ACHN renal, in the assay on KM12 colon, in the assay with NCI-H522 lung and with OVCAR-5 ovarian was more than 100 µM each time.

On to `CCc1nc(N)nc(N)c1-c1ccc(Cl)cc1`, for which the GI50 was 4.6 µM in the assay on MDA-MB-435; 60 µM in the assay on OVCAR-4 ovarian; 14.5 µM in the assay on UO-31 renal; 2.82 µM in the assay with LOX IMVI melanoma; 5.65 µM with U251 CNS; 16.1 µM in the assay on KM12 colon. Further, the GI50 in the assay on OVCAR-5 ovarian is 31.7 µM. In addition, the TGI in the assay on MDA-MB-435, in the assay on OVCAR-4 ovarian, in the assay with UO-31 renal, with LOX IMVI melanoma, in the assay with HT29 colon and in the assay with U251 CNS was more than 100 µM each time. Moreover, the TGI in the assay on ACHN renal, in the assay with KM12 colon, in the assay with NCI-H522 lung and with OVCAR-5 ovarian was more than 100 µM throughout.

In the case of `C=C1C(=O)O[C@@H]2[C@@H]3O[C@@](C)(CC/C=C(\C)CCC[C@@H]2C)[C@H](O)C[C@@H]13`, the GI50 in the assay with MDA-MB-435 was 1.89 µM; with OVCAR-4 ovarian it was 2.63 µM; with UO-31 renal, 1.4 µM; in the assay with LOX IMVI melanoma, 1.77 µM; with HT29 colon, 2.41 µM; in the assay with U251 CNS it was 3.75 µM. Further, the GI50 with ACHN renal was 1.59 µM; in the assay on NCI-H522 lung, 2.11 µM. Moreover, the TGI in the assay on MDA-MB-435 worked out at 5.47 µM; with OVCAR-4 ovarian, 11.7 µM; in the assay on UO-31 renal, 2.93 µM; with LOX IMVI melanoma it was 4.03 µM; in the assay on HT29 colon, 6.71 µM; with U251 CNS it was 15.6 µM. In addition, the TGI worked out at 3.11 µM with ACHN renal, 24.6 µM with KM12 colon, 4.5 µM in the assay on NCI-H522 lung and 26.7 µM in the assay with OVCAR-5 ovarian.
